How the values were obtained:
[1] = target: T1, mammalian GABAA α1β3γ2 receptor (Homo sapiens, UniProt P14867+P18507+P28472); assay: whole-cell planar patch clamp, block of GABA EC80 current in transfected HEK293 cells (antagonist positive control); assay type: cell-based
T1 construct: gene GABRA1; with GABRB3 (β3) and GABRG2 (γ2) subunits

[2] = target: T1, mammalian GABAA α1β3γ2 receptor; assay: whole-cell planar patch clamp, block of GABA EC80 current in transfected HEK293 cells; assay type: cell-based

T1 sequence (P14867 28-456): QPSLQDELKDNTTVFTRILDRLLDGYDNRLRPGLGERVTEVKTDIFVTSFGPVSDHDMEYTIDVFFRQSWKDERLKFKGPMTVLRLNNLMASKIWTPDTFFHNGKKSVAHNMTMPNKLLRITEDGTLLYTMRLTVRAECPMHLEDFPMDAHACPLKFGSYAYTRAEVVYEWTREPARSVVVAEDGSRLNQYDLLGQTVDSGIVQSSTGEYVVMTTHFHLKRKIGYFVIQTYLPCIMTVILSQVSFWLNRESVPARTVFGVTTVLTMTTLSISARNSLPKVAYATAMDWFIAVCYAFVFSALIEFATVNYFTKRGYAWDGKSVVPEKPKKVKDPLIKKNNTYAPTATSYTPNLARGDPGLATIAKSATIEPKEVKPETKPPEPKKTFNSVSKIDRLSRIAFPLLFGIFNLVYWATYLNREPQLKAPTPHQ
T1 sequence (P28472 26-473): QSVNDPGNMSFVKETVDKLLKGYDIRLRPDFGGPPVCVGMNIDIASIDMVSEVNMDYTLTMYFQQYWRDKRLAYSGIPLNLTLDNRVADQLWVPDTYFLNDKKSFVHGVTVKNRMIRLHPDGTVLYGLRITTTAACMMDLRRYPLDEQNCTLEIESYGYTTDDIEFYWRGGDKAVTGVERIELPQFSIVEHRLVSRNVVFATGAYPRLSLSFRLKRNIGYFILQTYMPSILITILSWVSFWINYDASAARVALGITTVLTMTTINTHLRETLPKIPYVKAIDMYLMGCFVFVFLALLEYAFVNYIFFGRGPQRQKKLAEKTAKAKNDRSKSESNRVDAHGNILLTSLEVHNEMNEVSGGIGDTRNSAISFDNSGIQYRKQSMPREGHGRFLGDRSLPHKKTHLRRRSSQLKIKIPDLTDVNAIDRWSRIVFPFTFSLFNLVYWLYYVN
T1 sequence (P18507 40-475): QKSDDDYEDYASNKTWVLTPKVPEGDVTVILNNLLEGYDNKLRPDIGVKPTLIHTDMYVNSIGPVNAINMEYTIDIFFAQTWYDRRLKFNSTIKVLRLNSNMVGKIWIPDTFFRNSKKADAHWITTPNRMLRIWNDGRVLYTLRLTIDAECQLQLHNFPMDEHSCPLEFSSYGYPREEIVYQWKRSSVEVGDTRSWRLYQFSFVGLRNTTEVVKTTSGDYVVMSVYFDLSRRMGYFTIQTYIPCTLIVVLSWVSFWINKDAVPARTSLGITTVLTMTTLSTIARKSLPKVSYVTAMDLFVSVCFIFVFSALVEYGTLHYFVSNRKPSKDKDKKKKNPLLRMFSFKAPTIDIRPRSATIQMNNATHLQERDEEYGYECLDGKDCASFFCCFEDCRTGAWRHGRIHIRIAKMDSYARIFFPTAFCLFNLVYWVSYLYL

| SMILES | IC50 [1] | IC50 [2] |
| --- | --- | --- |
| C=C(C)[C@@H]1[C@H]2OC(=O)[C@@H]1[C@]1(O)C[C@H]3OC34C(=O)O[C@H]2[C@@]41C.CC(C)(O)[C@@H]1[C@H]2OC(=O)[C@@H]1[C@]1(O)C[C@H]3OC34C(=O)O[C@H]2[C@@]41C (some centres unmarked) [picrotoxin] | 3.9 µM | – |
| N#Cc1nn(-c2c(Cl)cc(C(F)(F)F)cc2Cl)c(N)c1[S+]([O-])C(F)(F)F (centres unmarked) [fipronil] | – | 4.9 µM |

From article PMC5334708, “Mosquitocidal Activity and Mode of Action of the Isoxazoline Fluralaner” (International Journal of Environmental Research and Public …, 2017)
